Measurements reported in PubChem BioAssay AID328 (DTP/NCI, 2004).
Where “and” joins values, the source holds several entries; their conditions need not be identical. Equal values may be shown once. Toxic doses and inconclusive results are not listed.

Tests used:
[1] = test system: BDF1 mice, P388 leukemia ip; test: NCI In Vivo Anticancer Drug Screen. Data for tumor model P388 Leukemia (intraperitoneal) in B6D2F1 (BDF1) mice; conditions: endpoint: mean survival time, higher = longer survival
How it was run: (§1)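 Antitumour effect was judged in vivo: survival in drug-treated mice, normalised to that of vehicle-dosed controls, gives the reported T/C.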

[2] = test system: BDF1 mice, P388 leukemia ip, median survival T/C; test: as above; conditions: endpoint: median survival time, higher = longer survival
How it was run: as §1

For `CC1(C)C(=O)C(O)=CC2C1=CCC1C2(C)C(=O)CC2(C)C(C(C)(O)C(=O)CC(O)C(C)(C)O)C(O)CC12C` (centres undefined), the T/C ([1]; dose: 4.5 mg/kg/injection, schedule: Q01DX010 (ip), vehicle: carboxymethylcellulose (CMC)) was 95 % of control, the T/C ([1]; dose: 9.0 mg/kg/injection, schedule: Q01DX010 (ip), vehicle: carboxymethylcellulose (CMC)) was 101 % of control and the T/C ([1]; dose: 36.0 mg/kg/injection, schedule: Q01DX010 (ip), vehicle: carboxymethylcellulose (CMC)) was 103 % of control.

In the case of `CC(C)(O)/C=C/C(=O)[C@](C)(O)[C@H]1[C@H](O)C[C@@]2(C)[C@@H]3CC=C4[C@@H](C=C(O)C(=O)C4(C)C)[C@]3(C)C(=O)C[C@]12C`, the T/C ([2]; dose: 6.25 mg/kg/injection, schedule: Q01DX009 (ip), vehicle: Klucel (hydroxypropylcellulose) (HPC)) is reported as 100 % of control, the T/C ([2]; dose: 6.25 mg/kg/injection, schedule: Q04DX003 (ip), vehicle: other) is reported as 90 % of control and the T/C ([2]; dose: 12.5 mg/kg/injection, schedule: Q04DX003 (ip), vehicle: other) is reported as 104 % of control. The T/C ([2]; dose: 25.0 mg/kg/injection, schedule: Q01DX009 (ip), vehicle: Klucel (hydroxypropylcellulose) (HPC)) was 100 % of control, the T/C ([2]; dose: 25.0 mg/kg/injection, schedule: Q04DX003 (ip), vehicle: other) was 104 % of control and the T/C ([2]; dose: 50.0 mg/kg/injection, schedule: Q01DX009 (ip), vehicle: Klucel (hydroxypropylcellulose) (HPC)) was 100 % of control. For the same compound, the T/C ([2]; dose: 50.0 mg/kg/injection, schedule: Q04DX003 (ip), vehicle: other) was 109 % of control, the T/C ([1]; dose: 1.5 mg/kg/injection, schedule: Q01DX010 (ip), vehicle: carboxymethylcellulose (CMC)) was 97 % of control and the T/C ([1]; dose: 3.0 mg/kg/injection, schedule: Q01DX010 (ip), vehicle: carboxymethylcellulose (CMC)) was 99 % of control. The T/C ([1]; dose: 6.0 mg/kg/injection, schedule: Q01DX010 (ip), vehicle: carboxymethylcellulose (CMC)) was 101 % of control.

`CCN(CC)CCCC(C)NC(=O)c1cccc2c([N+](=O)[O-])cccc12` (centres undefined) was tested, and the T/C ([1]; dose: 3.12 mg/kg/injection, schedule: Q01DX009 (ip), vehicle: water) was 94 % of control, the T/C ([1]; dose: 12.5 mg/kg/injection, schedule: Q01DX009 (ip), vehicle: water) was 100 % of control and the T/C ([1]; dose: 25.0 mg/kg/injection, schedule: Q01DX009 (ip), vehicle: water) was 110 % of control. For the same compound, the T/C ([1]; dose: 50.0 mg/kg/injection, schedule: Q01DX009 (ip), vehicle: water) was 95 % of control and the T/C ([1]; dose: 100.0 mg/kg/injection, schedule: Q01DX009 (ip), vehicle: water) was 106 % of control.

In the case of `Cc1cc(N(CCCl)CCCl)ccc1/C=N\Nc1nncn1N`, the T/C ([2]; dose: 35.0 mg/kg/injection, schedule: Q01DX007 (ip), vehicle: Klucel (hydroxypropylcellulose) (HPC)) is reported as 157 % of control, the T/C ([2]; dose: 45.0 mg/kg/injection, schedule: Q04DX003 (ip), vehicle: Klucel (hydroxypropylcellulose) (HPC)) is reported as 120 % of control and the T/C ([2]; dose: 50.0 mg/kg/injection, schedule: Q01DX007 (ip), vehicle: Klucel (hydroxypropylcellulose) (HPC)) is reported as 175 % of control. For the same compound, the T/C ([2]; dose: 75.0 mg/kg/injection, schedule: Q01DX007 (ip), vehicle: Klucel (hydroxypropylcellulose) (HPC)) was 211 % of control, the T/C ([2]; dose: 100.0 mg/kg/injection, schedule: Q01DX009 (ip), vehicle: Klucel (hydroxypropylcellulose) (HPC)) was 118 % of control and the T/C ([2]; dose: 132.0 mg/kg/injection, schedule: Q04DX003 (ip), vehicle: Klucel (hydroxypropylcellulose) (HPC)) was 213 % of control. For the same compound, the T/C ([2]; dose: 132.0 mg/kg/injection, schedule: Q04DX003 (ip), vehicle: saline) was 163 % of control, the T/C ([2]; dose: 200.0 mg/kg/injection, schedule: Q01DX009 (ip), vehicle: Klucel (hydroxypropylcellulose) (HPC)) was 90 % of control and the T/C ([2]; dose: 200.0 mg/kg/injection, schedule: Q04DX003 (ip), vehicle: Klucel (hydroxypropylcellulose) (HPC)) was 218 % of control. For the same compound, the T/C ([2]; dose: 300.0 mg/kg/injection, schedule: Q04DX003 (ip), vehicle: Klucel (hydroxypropylcellulose) (HPC)) was 122 % of control and the T/C ([2]; dose: 300.0 mg/kg/injection, schedule: Q04DX003 (ip), vehicle: saline) was 90 % of control.

With `OC1(CSc2ccccc2)CCCCC1` the T/C ([2]; dose: 50.0 mg/kg/injection, schedule: Q01DX009 (ip), vehicle: saline with Tween-80) was 111 % of control, the T/C ([2]; dose: 100.0 mg/kg/injection, schedule: Q01DX009 (ip), vehicle: saline with Tween-80) was 116 % of control and 119 % of control and the T/C ([2]; dose: 200.0 mg/kg/injection, schedule: Q01DX009 (ip), vehicle: saline with Tween-80) was 116 % of control. The T/C ([2]; dose: 400.0 mg/kg/injection, schedule: Q01DX009 (ip), vehicle: saline with Tween-80) was 122 % of control.

For `O=C([O][Hg][CH2]C1COC([CH2][Hg][O]C(=O)c2ccccc2)CO1)c1ccccc1` (centres undefined), the T/C ([2]; dose: 100.0 mg/kg/injection, schedule: Q04DX003 (ip), vehicle: saline with Tween-80) was 113 % of control.

For `Cc1cc(C(C)(CC(C)C)c2ccc(O)c(C)c2)ccc1O`, the T/C ([2]; dose: 100.0 mg/kg/injection, schedule: Q01DX009 (ip), vehicle: gum acacia) was 120 % of control and the T/C ([2]; dose: 200.0 mg/kg/injection, schedule: Q01DX009 (ip), vehicle: gum acacia) was 108 % of control.

In the case of `CCCCCCCC(=O)[O][Hg][CH2]C1COC([CH2][Hg][O]C(=O)CCCCCCC)CO1` (centres undefined), the T/C ([2]; dose: 12.5 mg/kg/injection, schedule: Q01DX009 (ip), vehicle: saline sonified) is reported as 110 % of control and the T/C ([2]; dose: 50.0 mg/kg/injection, schedule: Q04DX003 (ip), vehicle: saline sonified) is reported as 116 % of control.

In the case of `CCN(C(=O)Nc1ccccc1)c1ccccc1`, the T/C ([2]; dose: 100.0 mg/kg/injection, schedule: Q01DX001 (ip), vehicle: saline with Tween-80) is reported as 104 % of control, the T/C ([2]; dose: 200.0 mg/kg/injection, schedule: Q01DX001 (ip), vehicle: saline with Tween-80) is reported as 90 % of control and the T/C ([2]; dose: 400.0 mg/kg/injection, schedule: Q01DX001 (ip), vehicle: saline with Tween-80) is reported as 95 % of control.

With `C/C=C(\C)C(=O)OC1CC[N+]2([O-])CCC(COC(=O)/C(=C/C)CO)C12` (centres undefined) the T/C ([2]; dose: 30.0 mg/kg/injection, schedule: Q01DX010 (ip), vehicle: saline) was 111 % of control, the T/C ([2]; dose: 60.0 mg/kg/injection, schedule: Q01DX010 (ip), vehicle: saline) was 111 % of control and the T/C ([2]; dose: 100.0 mg/kg/injection, schedule: Q01DX010 (ip), vehicle: saline) was 116 % of control.
